Laboratory results taken from PubChem BioAssay AID1918949 (Molecular Pharmacology Branch, DTP, NCI, 2023).
“And” between values parts separate entries of the source, which are not always exact repeats. Equal entries are not always repeated.

Test system: K24384-001-R-PDC complex spheroid viability
Test: Anticancer human tumor K24384-001-R-PDC patient-derived pancreatic adenocarcinoma cell line growth inhibition
Details: for viability, T/C: stronger effect = lower value
In short: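 Drug combinations with the LSD1 inhibitor iadademstat tested on tumor cells co-cultured as spheroids with endothelial cells and mesenchymal stem cells. Concentrations descended in half-log increments from clinical Cmax or 10 microM.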

[1] = curve of first compound, second compound 0.1 µM
[2] = curve of first compound, second compound 0.316 µM
[3] = curve of first compound, second compound 1 µM
[4] = curve of first compound, second compound 3.16 µM
[5] = curve of first compound, second compound 10 µM
[6] = second compound 0.1 µM, first compound 0.00316 µM
[7] = second compound 0.1 µM, first compound 0.01 µM
[8] = second compound 0.1 µM, first compound 0.0316 µM
[9] = second compound 0.1 µM, first compound 0.1 µM
[10] = second compound 0.316 µM, first compound 0.00316 µM
[11] = second compound 0.316 µM, first compound 0.01 µM
[12] = second compound 0.316 µM, first compound 0.0316 µM
[13] = second compound 0.316 µM, first compound 0.1 µM
[14] = second compound 1 µM, first compound 0.00316 µM
[15] = second compound 1 µM, first compound 0.01 µM
[16] = second compound 1 µM, first compound 0.0316 µM
[17] = second compound 1 µM, first compound 0.1 µM
[18] = second compound 3.16 µM, first compound 0.00316 µM
[19] = second compound 3.16 µM, first compound 0.01 µM
[20] = second compound 3.16 µM, first compound 0.0316 µM
[21] = second compound 3.16 µM, first compound 0.1 µM
[22] = second compound 10 µM, first compound 0.00316 µM
[23] = second compound 10 µM, first compound 0.01 µM
[24] = second compound 10 µM, first compound 0.0316 µM
[25] = second compound 10 µM, first compound 0.1 µM
[26] = second compound 0.1 µM, first compound 0.00949 µM
[27] = second compound 0.1 µM, first compound 0.03 µM
[28] = second compound 0.1 µM, first compound 0.0949 µM
[29] = second compound 0.1 µM, first compound 0.3 µM
[30] = second compound 0.316 µM, first compound 0.00949 µM
[31] = second compound 0.316 µM, first compound 0.03 µM
[32] = second compound 0.316 µM, first compound 0.0949 µM
[33] = second compound 0.316 µM, first compound 0.3 µM
[34] = second compound 1 µM, first compound 0.00949 µM
[35] = second compound 1 µM, first compound 0.03 µM
[36] = second compound 1 µM, first compound 0.0949 µM
[37] = second compound 1 µM, first compound 0.3 µM
[38] = second compound 3.16 µM, first compound 0.00949 µM
[39] = second compound 3.16 µM, first compound 0.03 µM
[40] = second compound 3.16 µM, first compound 0.0949 µM
[41] = second compound 3.16 µM, first compound 0.3 µM
[42] = second compound 10 µM, first compound 0.00949 µM
[43] = second compound 10 µM, first compound 0.03 µM
[44] = second compound 10 µM, first compound 0.0949 µM
[45] = second compound 10 µM, first compound 0.3 µM
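Also: spheroids exposed to agents for seven days before luminescence viability reading.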
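For viability, T/C in this document: 100% = DMSO vehicle control viability.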

CC[C@@]1(O)C(=O)OCc2c1cc1n(c2=O)Cc2cc3c(CN(C)C)c(O)ccc3nc2-1
viability, T/C (compound 0.000316 µM): 107% and 94.3% | viability, T/C (compound 0.001 µM): 107% and 78.8% | viability, T/C (compound 0.00316 µM): 83.1% and 87.1% | viability, T/C (compound 0.01 µM): 73% and 57.5% | viability, T/C (compound 0.0316 µM): 61.3% and 49.8% | viability, T/C (compound 0.1 µM): 49.9% and 42.5% | IC50 (curve of compound): > 100 nM and 21.4 nM

CC1COCCN1c1cc(-c2ccnn2C)c2ccnc(-c3ccn[nH]3)c2n1 (stereo unspecified) + NC1CC1c1ccc(-c2cccc(O)c2)cc1
IC50 [1]: 4.71 nM | IC50 [2]: 326 nM | IC50 [3]: 16.3 nM | IC50 [4]: 10.4 nM | IC50 [5]: 343 nM | viability, T/C [6]: 51.2% | viability, T/C [7]: 51.4% | viability, T/C [8]: 40.2% | viability, T/C [9]: 44.7% | viability, T/C (second compound 0.1 µM, first compound 0.316 µM): 46.9% | viability, T/C (second compound 0.1 µM, first compound 1 µM): 38% | viability, T/C [10]: 56.1% | viability, T/C [11]: 46.6% | viability, T/C [12]: 51% | viability, T/C [13]: 45.1% | viability, T/C (second compound 0.316 µM, first compound 0.316 µM): 53.5% | viability, T/C (second compound 0.316 µM, first compound 1 µM): 34% | viability, T/C [14]: 53% | viability, T/C [15]: 59.9% | viability, T/C [16]: 40.9% | viability, T/C [17]: 42.9% | viability, T/C (second compound 1 µM, first compound 0.316 µM): 43.8% | viability, T/C (second compound 1 µM, first compound 1 µM): 35.8% | viability, T/C [18]: 56.5% | viability, T/C [19]: 52.3% | viability, T/C [20]: 43.7% | viability, T/C [21]: 39.7% | viability, T/C (second compound 3.16 µM, first compound 0.316 µM): 48.1% | viability, T/C (second compound 3.16 µM, first compound 1 µM): 37% | viability, T/C [22]: 64.2% | viability, T/C [23]: 60.1% | viability, T/C [24]: 51.1% | viability, T/C [25]: 59% | viability, T/C (second compound 10 µM, first compound 0.316 µM): 51.8% | viability, T/C (second compound 10 µM, first compound 1 µM): 31.7%

CC(C)CC(NC(=O)C(Cc1ccccc1)NC(=O)c1cnccn1)B(O)O (stereo unspecified) + NC1CCC(NC2CC2c2ccccc2)CC1
IC50 [1]: 0.464 nM | IC50 [2]: 0.476 nM | IC50 [3]: 0.38 nM | IC50 [4]: 0.345 nM | IC50 [5]: 0.422 nM | viability, T/C (second compound 0.1 µM, first compound 0.000316 µM): 74% | viability, T/C (second compound 0.1 µM, first compound 0.001 µM): 1.78% | viability, T/C [6]: 0.23% | viability, T/C [7]: 0.12% | viability, T/C [8]: 0.2% | viability, T/C [9]: 0.23% | viability, T/C (second compound 0.316 µM, first compound 0.000316 µM): 76.5% | viability, T/C (second compound 0.316 µM, first compound 0.001 µM): 1.74% | viability, T/C [10]: 0.26% | viability, T/C [11]: 0.08% | viability, T/C [12]: 0.76% | viability, T/C [13]: 1.15% | viability, T/C (second compound 1 µM, first compound 0.000316 µM): 59.1% | viability, T/C (second compound 1 µM, first compound 0.001 µM): 2.07% | viability, T/C [14]: 0.15% | viability, T/C [15]: 0.08% | viability, T/C [16]: 0.09% | viability, T/C [17]: 0.19% | viability, T/C (second compound 3.16 µM, first compound 0.000316 µM): 53.9% | viability, T/C (second compound 3.16 µM, first compound 0.001 µM): 1.45% | viability, T/C [18]: 0.27% | viability, T/C [19]: 0.11% | viability, T/C [20]: 0.12% | viability, T/C [21]: 0.18% | viability, T/C (second compound 10 µM, first compound 0.000316 µM): 64.1% | viability, T/C (second compound 10 µM, first compound 0.001 µM): 8.36% | viability, T/C [22]: 2.45% | viability, T/C [23]: 0.22% | viability, T/C [24]: 0.21% | viability, T/C [25]: 0.3%

Nc1ncn(C2CC(O)C(CO)S2)c(=O)n1 (stereo unspecified) + NC1CCC(NC2CC2c2ccccc2)CC1
IC50 [1]: > 300 nM | IC50 [2]: > 300 nM | IC50 [3]: > 300 nM | IC50 [4]: > 300 nM | IC50 [5]: > 300 nM | viability, T/C (second compound 0.1 µM, first compound 0.000949 µM): 92.8% | viability, T/C (second compound 0.1 µM, first compound 0.003 µM): 85.4% | viability, T/C [26]: 93% | viability, T/C [27]: 70.1% | viability, T/C [28]: 78.1% | viability, T/C [29]: 63.3% | viability, T/C (second compound 0.316 µM, first compound 0.000949 µM): 97.4% | viability, T/C (second compound 0.316 µM, first compound 0.003 µM): 77.4% | viability, T/C [30]: 80.6% | viability, T/C [31]: 79.7% | viability, T/C [32]: 85.1% | viability, T/C [33]: 59.5% | viability, T/C (second compound 1 µM, first compound 0.000949 µM): 82.2% | viability, T/C (second compound 1 µM, first compound 0.003 µM): 78.1% | viability, T/C [34]: 105% | viability, T/C [35]: 78.5% | viability, T/C [36]: 73.5% | viability, T/C [37]: 65.2% | viability, T/C (second compound 3.16 µM, first compound 0.000949 µM): 98.1% | viability, T/C (second compound 3.16 µM, first compound 0.003 µM): 97.9% | viability, T/C [38]: 85% | viability, T/C [39]: 75% | viability, T/C [40]: 81.7% | viability, T/C [41]: 48.5% | viability, T/C (second compound 10 µM, first compound 0.000949 µM): 90.3% | viability, T/C (second compound 10 µM, first compound 0.003 µM): 98.6% | viability, T/C [42]: 71.2% | viability, T/C [43]: 79.5% | viability, T/C [44]: 69.5% | viability, T/C [45]: 61.9%

NS(=O)(=O)OCC1CC(n2ccc3c(NC4CCc5ccccc54)ncnc32)CC1O (stereo unspecified) + NC1CC1c1ccc(-c2cccc(O)c2)cc1
IC50 [1]: 439 nM | IC50 [2]: 570 nM | IC50 [3]: 479 nM | IC50 [4]: 420 nM | IC50 [5]: 512 nM | viability, T/C [26]: 124% | viability, T/C [27]: 155% | viability, T/C [28]: 154% | viability, T/C [29]: 58.9% | viability, T/C (second compound 0.1 µM, first compound 0.949 µM): 36.9% | viability, T/C (second compound 0.1 µM, first compound 3 µM): 27% | viability, T/C [30]: 128% | viability, T/C [31]: 156% | viability, T/C [32]: 135% | viability, T/C [33]: 71.1% | viability, T/C (second compound 0.316 µM, first compound 0.949 µM): 37.5% | viability, T/C (second compound 0.316 µM, first compound 3 µM): 25.4% | viability, T/C [34]: 114% | viability, T/C [35]: 155% | viability, T/C [36]: 146% | viability, T/C [37]: 62.5% | viability, T/C (second compound 1 µM, first compound 0.949 µM): 36.6% | viability, T/C (second compound 1 µM, first compound 3 µM): 26.9% | viability, T/C [38]: 110% | viability, T/C [39]: 148% | viability, T/C [40]: 138% | viability, T/C [41]: 55.4% | viability, T/C (second compound 3.16 µM, first compound 0.949 µM): 43.1% | viability, T/C (second compound 3.16 µM, first compound 3 µM): 30.8% | viability, T/C [42]: 155% | viability, T/C [43]: 151% | viability, T/C [44]: 114% | viability, T/C [45]: 61.1% | viability, T/C (second compound 10 µM, first compound 0.949 µM): 40.8% | viability, T/C (second compound 10 µM, first compound 3 µM): 23%

NS(=O)(=O)OCC1CC(n2ccc3c(NC4CCc5ccccc54)ncnc32)CC1O (stereo unspecified)
viability, T/C (compound 0.00949 µM): 98.5% and 116% | viability, T/C (compound 0.03 µM): 123% and 143% | viability, T/C (compound 0.0949 µM): 109% and 126% | viability, T/C (compound 0.3 µM): 52.2% and 53.9% | viability, T/C (compound 0.949 µM): 34.3% and 34.6% | viability, T/C (compound 3 µM): 19.9% and 22.4% | IC50 (curve of compound): 338 nM and 362 nM

Nc1ncn(C2CC(O)C(CO)O2)c(=O)n1 (stereo unspecified)
viability, T/C (compound 0.00316 µM): 98.6% and 96.8% | viability, T/C (compound 0.01 µM): 88.9% and 94.9% | viability, T/C (compound 0.0316 µM): 93% and 100% | viability, T/C (compound 0.1 µM): 84.2% and 77.6% | viability, T/C (compound 0.316 µM): 75.6% and 75.5% | viability, T/C (compound 1 µM): 75% and 87.2% | IC50 (curve of compound): > 1000 nM
